From patent publication US20120052122A1, “Treatment Of Chronic Obstructive Pulmonary Disease With Phosphodiesterase-4 Inhibitor” (Nycomed GmbH, priority 2010, published 2012)
Where “and” joins values, the source holds several entries; their conditions need not be identical. Equal entries are not always repeated. Where two headings read alike, the source gives them in different places.

Columns and labels:
Plasma protein binding = assay type: in vitro ADME
[1] = tested on: human airway epithelial cells; assay: MUC5AC formation; conditions: human airway epithelial cells and animal experiments
B6C3F1 mice = assay: Two year carcinogenicity study in B6C3F1 mice; assay type: in vivo, mouse; conditions: gavage up to 12 mg/kg/day (males), 18 mg/kg/day (females), two years
Protocol: No other treatment-related neoplastic findings were observed. Overall, the tumor-free level in the animals was 4 mg/kg/day.

[2] = Phase I studies, single oral doses of 2,500 mcg and 5,000 mcg; assay type: in vivo, human; conditions: single oral doses of 2,500 mcg and one single dose of 5,000 mcg
[3] = Pharmacokinetics in special populations (total PDE4 inhibitory activity); conditions: in vivo
[4] = tested on: patients with COPD and chronic cough and sputum production
Source text: Their postbronchodilator FEV1 was 50% or less than the predicted value.
Patients could use short acting β2 agonists as needed and could continue treatment with long acting β2 agonists or short acting anti-cholinergic drugs at stable doses. However, inhaled corticosteroids and long acting anti-cholinergic drugs were not allowed during the study. Eligible patients were stratified according to their use of long acting β2 agonists and smoking status.
The primary endpoints were the change in prebronchodilator FEV1 during treatment and the rate of COPD exacerbations, defined as moderate if they required treatment with oral or parenteral corticosteroids, or severe if they were associated with hospital admission or death. […] Additionally, data for the total number of COPD exacerbations (as defined above together with episodes treated with antibiotics alone) and a range of spirometric outcomes were gathered.
A negative binominal regression analysis was done to assess the robustness of the results against the distributional assumptions. Data were analyzed in the two studies separately and in a pooled analysis. Changes were analyzed from baseline in prebronchodilator and postbronchodilator FEV1 using a repeated-measures analysis of covariance with all data available for patients during the 52-week treatment. (Reference 18) A Cox proportional hazard model was used to test for differences in time-to-event data. For analysis of the concentrations of C-reactive protein, an analysis of covariance model was used, with the method of the last observation carried forward for the log-transformed data for concentrations. For the regression models (analysis of covariance, Cox, and Poisson), the covariates included treatment, age, sex, smoking status (current or former smoker), country, and treatment with long acting β2 agonists. In the Cox analysis, country was included as a stratum. In the Poisson regression analysis, baseline postbronchodilator FEV1 (% of predicted value) was also included as a covariate. To address the issue of multiple comparisons, a hierarchical hypothesis-testing approach was adopted, If the primary outcomes were positive, the key secondary outcomes were tested in the order above. If a significant difference between treatments was not obtained for the primary or key secondary outcomes, all subsequent analyses were considered exploratory.
In the one-year trials, long-acting beta-2 agonists (LABA) were allowed and used in approximately 50% of the study population. The use of inhaled corticosteroids was terminated at randomization. Lung function (pre-bronchodilator forced expiratory volume in one second, FEV1) and the rate of moderate exacerbations (requiring intervention with systemic glucocorticosteroids) or severe exacerbations (resulting in hospitalization and/or leading to death) were primary endpoints. Secondary endpoints in both studies included further evaluation of exacerbations and lung function parameters, dyspnea, and use of reliever medication.

[5] = tested on: patients with COPD and chronic cough and sputum production; remark: listed apart in the source
[6] = M2-124 and M2-125 pooled, 52 weeks
[7] = M2-124 and M2-125 pooled, 52 weeks, mean
[8] = M2-124 and M2-125 pooled, 52 weeks, mean (SE)
[9] = M2-124 and M2-125 pooled, Roflumilast vs Placebo
[10] = M2-124 and M2-125 pooled, Roflumilast vs Placebo, listed as roflumilast

O=C(Nc1c(Cl)cncc1Cl)c1ccc(OC(F)F)c(OCC2CC2)c1 [Roflumilast, N-(3,5-dichloropyridin-4-yl)-3-cyclopropylmethoxy-4-difluoromethoxy-benzamide]
fraction unbound (Plasma protein binding): ~0.01 | Formation of MUC5AC [1]: inhibited | Tumors (B6C3F1 mice): No compound-related tumors | Symptoms observed at an increased rate [2]: headache, gastrointestinal disorders, dizziness, palpitations, lightheadedness, clamminess and arterial hypotension | Total PDE4 inhibitory activity in smokers [3]: slightly decreased | Total PDE4 inhibitory activity in the elderly [3]: increased | Total PDE4 inhibitory activity in women compared with men [3]: increased | Change in C-reactive protein from baseline to last postrandomisation visit ([4]; M2-124 and M2-125 pooled): 1.1; n = 1371 mg/L | Median time to first exacerbation (moderate or severe) [IQR] ([4]; M2-124 and M2-125 pooled): 80.0 (28.0-190.0) days | Median time to second exacerbation (moderate or severe) [IQR] ([4]; M2-124 and M2-125 pooled): 177.0 (92.0-262.0) days | Time to mortality (mean, SD) ([4]; M2-124 and M2-125 pooled): 206.1 days | Exacerbations moderate or severe, mean rate [95% CI] [4, 6]: 1.14 (1.05-1.24); per patient, per year | Exacerbations moderate, mean rate [95% CI] [4, 6]: 0.99 (0.91-1.08); per patient, per year | Exacerbations severe, mean rate [95% CI] [4, 6]: 0.12 (0.10-0.16); per patient, per year | Exacerbations treated with systemic corticosteroids, antibiotics, or both, mean rate [95% CI] [4, 6]: 1.13 (1.04-1.23); per patient, per year | Change in postbronchodillator FEV1/FVC [4, 7]: 0.517% | Change in prebronchodillator FEV1/FVC [4, 7]: 0.247% | Change in postbronchodillator FEF25-75 [4, 8]: 21 (4); mL/s | Change in postbronchodillator FEV1 [4, 8]: 50 (6); mL | Change in postbronchodillator FVC [4, 8]: 67 (10); mL | Change in postbronchodillator PEF [4, 8]: 4.93 (1.05); L/min | Change in prebronchodillator FEF25-75 [4, 8]: 16 (4); mL/s | Change in prebronchodillator FEV1 [4, 8]: 40 (6); mL | Change in prebronchodillator FVC [4, 8]: 64 (10); mL | Change in prebronchodillator PEF [4, 8]: 3.69 (1.02); L/min | Change in C-reactive protein from baseline to last postrandomisation visit, difference [4, 9]: Difference 1.0 mg/L | Change in postbronchodillator FEF25-75, difference [4, 9]: Difference 19 mL/s | Change in postbronchodillator FEV1, difference [4, 9]: Difference 55 mL | Change in postbronchodillator FEV1/FVC, difference [4, 9]: Difference 0.426% | Change in postbronchodillator FVC, difference [4, 9]: Difference 101 mL | Change in postbronchodillator PEF, difference [4, 9]: Difference 4.72 L/min | Change in prebronchodillator FEF25-75, difference [4, 9]: Difference 20 mL/s | Change in prebronchodillator FEV1, difference [4, 9]: Difference 48 mL | Change in prebronchodillator FEV1/FVC, difference [4, 9]: Difference 0.393% | Change in prebronchodillator FVC, difference [4, 9]: Difference 98 mL | Change in prebronchodillator PEF, difference [4, 9]: Difference 3.53 L/min | EQ-5D total score, difference [4, 9]: 0.0023 | TDI focal score, difference [4, 9]: Difference 0.3 | Change in postbronchodillator FEV1, difference [4, 10]: 55 mL | Change in prebronchodillator FEV1, difference [4, 10]: 48 mL | TDI focal score, difference [4, 10]: 0.25 | EQ-5D total score ([4]; M2-124 and M2-125 pooled, mean): 0.0072 | TDI focal score ([4]; M2-124 and M2-125 pooled, mean (SE)): 0.7 (0.1); | Probability of withdrawal due to adverse events in the first 12 weeks ([4]; human, in vivo): 8% | Subsequent probability of withdrawal because of adverse events ([4]; human, in vivo): 9% | Adverse events reported, patients ([4]; human, in vivo, 52 weeks): 1040 (67%) number (%) | Atrial fibrillation, patients ([4]; human, in vivo, 52 weeks): 17 (1%) number (%) | Discontinuations associated with adverse events ([4]; human, in vivo, 52 weeks): 219 [14%] number [%] | Reported cardiovascular adverse events ([4]; human, in vivo, 52 weeks): 108 [7%] number [%] | Serious adverse events reported, patients ([4]; human, in vivo, 52 weeks): 301 (19%) number (%) | Vomiting, patients ([4]; human, in vivo, 52 weeks): 17 (1%) number (%) | Incidence of pneumonia or other pulmonary infections ([4]; in vivo): did not increase | Mean absolute weight change over the 1-year period ([4]; in vivo): -2.1 kg | Neurological or cardiac toxicity ([4]; in vivo): No significant neurological or cardiac toxicity | Patients with a decrease of body weight ([4]; in vivo): 62% | Weight loss in patients not reporting diarrhea, nausea, vomiting, or headache ([4]; in vivo): 2.02 kg | Weight loss in patients reporting diarrhea, nausea, vomiting, or headache ([4]; in vivo): 2.60 kg | Number of patients experiencing a moderate exacerbation ([4]; pooled): 624 | Number of patients experiencing a severe exacerbation ([4]; pooled): 157 | Estimated rate of moderate or severe exacerbations per patient per year, lower than placebo ([4]; pooled analysis): 17% | Exacerbations (excluding severe events) requiring systemic corticosteroids or antibiotics, or both, reduction vs placebo ([4]; pooled analysis): 16% | Mean prebronchodilator FEV1 increase with long acting β2 agonist ([4]; pooled, compared to placebo, concomitant LABA): 46 mL | Mean prebronchodilator FEV1 increase without long acting β2 agonist ([4]; pooled, compared to placebo, no concomitant LABA): 50 mL | Change in C-reactive protein from baseline to last postrandomisation visit ([5]; M2-124): 1.0; n = 691 mg/L | Median time to first exacerbation (moderate or severe) [IQR] ([5]; M2-124): 85.0 (29.5-185.5) days | Median time to second exacerbation (moderate or severe) [IQR] ([5]; M2-124): 172.0 days | Number of patients needed to treat to prevent one moderate or severe exacerbation per year ([5]; M2-124): 5.3 and 5.29 | Time to mortality (mean, SD) ([5]; M2-124): 213.8 days | Exacerbations moderate or severe, mean rate [95% CI] ([5]; M2-124, 52 weeks): 1.08 (0.96-1.21); per patient, per year | Exacerbations moderate, mean rate [95% CI] ([5]; M2-124, 52 weeks): 0.94 (0.83-1.06); per patient, per year | Exacerbations severe, mean rate [95% CI] ([5]; M2-124, 52 weeks): 0.11 (0.07-0.15); per patient, per year | Exacerbations treated with systemic corticosteroids, antibiotics, or both, mean rate [95% CI] ([5]; M2-124, 52 weeks): 1.10 (0.98-1.23); per patient, per year | Change in postbronchodillator FEV1/FVC ([5]; M2-124, 52 weeks, mean): 0.488% | Change in prebronchodillator FEV1/FVC ([5]; M2-124, 52 weeks, mean): 0.314% | Change in postbronchodillator FEF25-75 ([5]; M2-124, 52 weeks, mean (SE)): 22 (6); mL/s | Change in postbronchodillator FEV1 ([5]; M2-124, 52 weeks, mean (SE)): 57 (9); mL | Change in postbronchodillator FVC ([5]; M2-124, 52 weeks, mean (SE)): 76 (15); mL | Change in postbronchodillator PEF ([5]; M2-124, 52 weeks, mean (SE)): 8.08 (1.50); L/min | Change in prebronchodillator FEF25-75 ([5]; M2-124, 52 weeks, mean (SE)): 19 (5); mL/s | Change in prebronchodillator FEV1 ([5]; M2-124, 52 weeks, mean (SE)): 46 (8); mL | Change in prebronchodillator FVC ([5]; M2-124, 52 weeks, mean (SE)): 68 (15); mL | Change in prebronchodillator PEF ([5]; M2-124, 52 weeks, mean (SE)): 6.65 (1.45); L/min | Adverse event Influenza, difference ([5]; M2-124, Roflumilast vs Placebo): 1.13% (−0.70 to 2.95) | Change in C-reactive protein from baseline to last postrandomisation visit, difference ([5]; M2-124, Roflumilast vs Placebo): Difference 1.0 (0.8 mg/L | Change in postbronchodillator FEF25-75, difference ([5]; M2-124, Roflumilast vs Placebo): Difference 11 (−5 mL/s | Change in postbronchodillator FEV1, difference ([5]; M2-124, Roflumilast vs Placebo): Difference 49 (26 mL | Change in postbronchodillator FEV1/FVC, difference ([5]; M2-124, Roflumilast vs Placebo): Difference 0.202 (−0.343% | Change in postbronchodillator FVC, difference ([5]; M2-124, Roflumilast vs Placebo): Difference 101 (63 mL | Change in postbronchodillator PEF, difference ([5]; M2-124, Roflumilast vs Placebo): Difference 4.21 L/min | Change in prebronchodillator FEF25-75, difference ([5]; M2-124, Roflumilast vs Placebo): Difference 17 (3 to mL/s | Change in prebronchodillator FEV1, difference ([5]; M2-124, Roflumilast vs Placebo): Difference 39 (18 mL | Change in prebronchodillator FEV1/FVC, difference ([5]; M2-124, Roflumilast vs Placebo): Difference 0.312 (−0.262% | Change in prebronchodillator FVC, difference ([5]; M2-124, Roflumilast vs Placebo): Difference 89 (51 mL | EQ-5D total score, difference ([5]; M2-124, Roflumilast vs Placebo): Difference −0.0047 | TDI focal score, difference ([5]; M2-124, Roflumilast vs Placebo): Difference 0.2 | Change in prebronchodillator FVC, difference ([5]; M2-124, Roflumilast vs Placebo, listed as roflumilast): 89 mL | EQ-5D total score ([5]; M2-124, mean): 0.0049 | TDI focal score ([5]; M2-124, mean (SE)): 0.7 (0.1); | Adverse event Influenza, patients ([5]; M2-124, n = 769): 27 (4%) number (%) | Adverse event Upper respiratory tract infection, patients ([5]; M2-124, n = 769): 16 (2%) number (%) | Adverse event Upper respiratory tract infection, difference ([5]; human, in vivo, 52 weeks): −0.70% (−2.38 to 0.98)
